Reference: patent US7772275B2, “Compositions and method for treating affective, painful or allergic disorders” (Gideon Pharmaceuticals, Inc., priority 2002, dated 2010)

Assays:
[1] = tested on: pruritic skin lesions of atopic dermatitis; experiment: Cream applied to pruritic skin lesions by patients with atopic dermatitis; assay type: in vivo, human; conditions: cream 1.0% by weight, applied two to four times daily
Text: A cream containing cis doxepin isomer 1.0% by weight is applied two to four times daily to pruritic skin lesions by patients with atopic dermatitis.

[2] = Applicant's evaluation of sedation with the cis isomer at therapeutically effective dosages; assay type: in vivo
Text: In an attempt to discover a compound that might have similar effectiveness to doxepin hydrochloride U.S.P. but less associated sedation, the applicant has evaluated the cis isomer, which as mentioned above constitutes less than 18.1 % of doxepin hydrochloride. […] The invention includes pharmaceutical compositions of cis doxepin suitable for administration to patients with affective disorders, painful disorders, or allergic disorders.

[3] = in animals; 'purportedly'; cited from earlier work

Structure (SMILES): CN(C)CC/C=C1/c2ccccc2COc2ccccc21.Cl [cis doxepin hydrochloride]
- relief of itching [1]: provides for relief of itching
- resolution of the skin lesions [1]: more prompt resolution of the skin lesions
- sedation compared with prior art doxepin creams in which the trans isomer is predominant [1]: without producing the incidence or severity of sedation
- sedation compared with doxepin hydrochloride U.S.P. [2]: produces less sedation
- potency compared with doxepin hydrochloride U.S.P. [3]: more potent
